Values quoted from earlier work, collected in patent publication US6947791B2, “Method and apparatus for electrically assisted topical delivery of agents for cosmetic applications” (Genetronics, Inc., priority 1998, dated 2005).
Read-outs that look alike come from different tables or passages of the source.

Test system: human dermal fibroblasts
Details: for MTT50 (amount required to kill 50% of the cells in cell culture): pH 7.5

O=C1O[C@H]([C@@H](O)CO)C([O-])=C1OP(=O)([O-])[O-].O=C1O[C@H]([C@@H](O)CO)C([O-])=C1OP(=O)([O-])[O-].[Mg+2].[Mg+2].[Mg+2] [MAP]
MTT50 (amount required to kill 50% of the cells in cell culture) (fibroblasts from person one): 75,000 ppm | MTT50 (amount required to kill 50% of the cells in cell culture) (fibroblasts from person two): higher than 100,000 ppm | cytotoxicity compared to L-ascorbic acid (fibroblasts of all ages): significantly lower cytotoxicity
